This note sets out measurements from article PMC4315423 (Journal of Medicinal Chemistry, 2014).

Molecules are shown by their SMILES. Values after ≈ are worked out from the molar mass of the structure shown.

Series [1] in a line: in vivo pharmacokinetics, plasma and brain, single ip dose in male C57BL/6 mice. Particulars: ip 30 mg/kg. Further details: species or system mouse.
Series [2] in a line: aqueous kinetic solubility. The settings on record: PBS aqueous buffer. It is filed as physicochemical.

Regarding `CN1C(=O)c2ccccc2[S@+]([O-])c2ccc(C(=O)NCCc3cccs3)cc21` [compound 65, 10-Methyl-11-oxo-N-(2-(thiophen-2-yl)ethyl)-10,11-dihydrodibenzo[b,f][1,4]thiazepine-8-carboxamide 5-(S)-Oxide], the “time to reach brain Cmax” value in series [1] (brain, C57BL/6 mice) is recorded as no more than 15 min. Moreover, the “behavioural observation after dosing” value in series [1] (male C57BL/6 mice, at 5 min after dosing, lasted for about 2 h) is reported as “appeared less active”. For the same compound, the kinetic solubility in series [2] came to 46.5 µg/mL (≈ 113 µM).
